According to patent publication US20240287138A1, “CYCLIC PEPTIDES FOR INHIBITING TNF RECEPTOR 1 ACTIVITY” (Merck Sharp & Dohme LLC, priority 2023, published 2024):
Numbered stars: 1 amine (or outer) side, 2 acyl side, 3 side chain; on linkers, the order of the positions; unused ones are H or OH. Bridge positions count the residues as written; N and C are the ends. Square brackets hold non-standard residues; d marks the D form. Peptide text beside a SMILES is read from it. Trp(βS-Me,7-OMe) = COc1cccc2c([C@H](C)[C@H](N)C(=O)O)c[nH]c12; Trp(7-CN) = N#Cc1cccc2c(C[C@H](N)C(=O)O)c[nH]c12; Trp(7-Cl) = N[C@@H](Cc1c[nH]c2c(Cl)cccc12)C(=O)O; Ala(pyrimidin-5-yl) = N[C@@H](Cc1cncnc1)C(=O)O; Phe(4-CONH2) = NC(=O)c1ccc(C[C@H](N)C(=O)O)cc1; Phe(4-COOH) = N[C@@H](Cc1ccc(C(=O)O)cc1)C(=O)O; 4Pal(3S-Me) = C[C@@H](c1ccncc1)[C@H](N)C(=O)O; Trp(7-aza) = N[C@@H](Cc1c[nH]c2ncccc12)C(=O)O; X1 = O=C([C@@H]1CC[C@H](N[*:1])C1)[*:2]; Val(3-OH) = CC(C)(O)[C@H](N)C(=O)O; X65 = O=C(CN(CC1(O)CC1)[*:1])[*:2]; Pip(4-aza) = O=C(O)[C@@H]1CNCCN1; 4Pal = N[C@@H](Cc1ccncc1)C(=O)O; NMeE = CN[C@@H](CCC(=O)O)C(=O)O; dHyp = O=C(O)[C@H]1C[C@H](O)CN1; Ahp(2) = CCCCC[C@H](N)C(=O)O; Pip = O=C(O)[C@@H]1CCCCN1; αMeS = C[C@](N)(CO)C(=O)O; Nle = CCCC[C@H](N)C(=O)O; Sar = CNCC(=O)O

Key:
[1] = molecular target: T1, human soluble TNFR1 (sTNFR1) (Homo sapiens, UniProt P19438); assay: Human sTNFR1-peptide displacement assay (LanthaScreen Eu TR-FRET binding assay)
T1 construct: made in house; host or cells: Sf21 (baculovirus)
T1 sequence (P19438 with tags, fused parts or gaps): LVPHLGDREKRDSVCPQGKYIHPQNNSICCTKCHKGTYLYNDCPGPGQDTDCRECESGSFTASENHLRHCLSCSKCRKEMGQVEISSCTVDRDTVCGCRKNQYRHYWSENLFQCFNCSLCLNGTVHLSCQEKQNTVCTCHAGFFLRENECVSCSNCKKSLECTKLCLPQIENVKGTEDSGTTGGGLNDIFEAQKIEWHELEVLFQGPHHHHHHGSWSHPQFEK
Experimental: A. Procedure for Human sTNFR1-Peptide Displacement Assay
The affinity was determined using LanthaScreen Eu-based time-resolved fluorescence resonance energy transfer (TR-FRET)-based binding assay.
A TR-FRET assay measuring the displacement of biotinylated peptide SEQ ID NO. 1 from human soluble TNFR1 (sTNFR1) in a pre-formed complex by a macrocyclic peptide yields the affinity (Kd^app) of the cyclic peptide for sTNFR1. The reagents for the assay include: the C′-terminally 6His-tagged sTNFR1 (residues 1-211) protein purified from a Sf21 baculovirus expression system, the biotin-tagged B0372 peptide described in section “Preparation of Final Compounds”, part E, the LanthaScreen™ anti-His Tag Europium donor (Life Technologies Corporation (San Diego, CA), cat. #PV5597), and a streptavidin-conjugate Alexa Fluor™ 647 acceptor (Invitrogen (Waltham, MA), cat. #S32357). Time-resolved TR-FRET is achieved when sTNFR1 is bound to biotinylated peptide SEQ ID NO. 1 through coupling of the donor and acceptor FRET pair.
100 nM biotinylated peptide SEQ ID NO. […] 100 nM biotinylated peptide SEQ ID NO. 1 was chosen as it reflects the ˜Kd for this complex. After 30 min at ambient temperature, each test peptide (2 mM stock in DMSO) is titrated in a 20 point, ˜3-fold discrete dose-response using an acoustic-dispense liquid handler. Specifically, 80 nL of peptide/DMSO is transferred into a ProxiPlate-384 Plus 384-well assay plate (PerkinElmer, cat. #6008289). To this plate, 8 μL of the previously formed sTNFR 1-biotinylated peptide SEQ ID NO. 1 complex is added and allowed to reach binding equilibrium with the test peptide at ambient temperature for 90 min.
The TR-FRET signal is measured with the following EnVision® settings: excitation laser at 337 nm; emission1=615 nm, emission2=665 nm, LANCE/DELFIA dichroic mirror, delay time=[…]. The signal of each well is determined as the ratio of the emission at 665 nm to that at 615 nm. Percent displacement is determined by normalization to control wells containing DMSO (0%) or a saturating concentration of a displaceable peptide (100%). The %-effect as a function of peptide concentration is fit to a five-parameter logistic fit based on the Morrison equation to account for tight binding kinetics.

[2] = molecular target: T2, TNFα-induced NF-κB signal transduction pathway (TNFR1 signaling) in THP-1 cells (Homo sapiens, UniProt P19438); assay: THP-1 Lucia NF-κB reporter cell assay, inhibition of TNFα-induced NF-κB signaling; assay type: cell-based; conditions: THP-1 NF-κB Lucia reporter cells, 10 ng/mL TNFα, 16-18 h, secreted luciferase; read-out: THP-1 IC50
T2 sequence (P19438 30-455): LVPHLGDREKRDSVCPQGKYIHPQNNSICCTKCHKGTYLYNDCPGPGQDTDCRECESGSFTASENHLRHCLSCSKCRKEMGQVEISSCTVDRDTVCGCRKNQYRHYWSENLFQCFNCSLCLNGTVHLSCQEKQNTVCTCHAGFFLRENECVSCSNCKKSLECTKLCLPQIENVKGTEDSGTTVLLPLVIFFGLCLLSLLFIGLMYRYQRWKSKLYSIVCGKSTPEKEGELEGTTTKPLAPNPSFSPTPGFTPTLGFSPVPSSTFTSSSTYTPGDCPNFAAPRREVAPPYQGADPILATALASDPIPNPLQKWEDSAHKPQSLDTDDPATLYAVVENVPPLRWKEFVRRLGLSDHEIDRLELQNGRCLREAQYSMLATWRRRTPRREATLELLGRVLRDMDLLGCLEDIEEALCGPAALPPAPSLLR
Method in brief: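 Macrocyclic peptides were preincubated 1 h at 37 °C with THP-1 NF-κB-Lucia reporter cells (20,000 cells/well) in antibiotic-free RPMI 1640/10% FBS, then stimulated with 10 ng/mL human TNFα overnight (16-18 h). Secreted luciferase in supernatant was read by luminescence; IC50 from 4-parameter logistic fits.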

Row | SMILES | Kd [1] [nM] | IC50 [2] [nM] | IC50 [1] [nM]
1 | CCCC[C@@H]1NC(=O)CSC[C@@H](C(N)=O)NC(=O)[C@H]([C@@H](C)c2c[nH]c3c(OC)cccc23)NC(=O)CN(C)C(=O)[C@H](Cc2ccc(O)cc2)NC(=O)[C@H](Cc2ccc(C(=O)O)cc2)NC(=O)[C@](C)(CO)NC(=O)[C@H](Cc2c[nH]c3c(Cl)cccc23)NC(=O)[C@H](Cc2ccncc2)NC(=O)[C@H](CC(N)=O)NC(=O)[C@H](CCC(=O)O)N(C)C(=O)[C@H](Cc2c[nH]c3ncccc23)NC(=O)[C@H](C(C)(C)O)NC(=O)[C@H](Cc2cncnc2)NC1=O [SEQ ID NO. 177] ({CH2CO}-[Nle][Ala(pyrimidin-5-yl)][Val(3-OH)][Trp(7-aza)][NMeE]N[4Pal][Trp(7-Cl)][αMeS][Phe(4-COOH)]Y[Sar][Trp(βS-Me,7-OMe)]C-NH2; thioether N-14) | 0.54 | 3.3 | 
2 | CCCCC[C@@H]1NC(=O)[C@@H]2CC[C@@H](C2)NC(=O)[C@H]([C@@H](C)c2c[nH]c3c(OC)cccc23)NC(=O)CN(C)C(=O)[C@H](Cc2ccc(C(N)=O)cc2)NC(=O)[C@H](Cc2ccc(C(N)=O)cc2)NC(=O)[C@](C)(CO)NC(=O)[C@H](Cc2c[nH]c3c(C#N)cccc23)NC(=O)[C@H](Cc2ccc(C(=O)O)cc2)NC(=O)[C@H](CC(N)=O)NC(=O)[C@H]2C[C@H](O)CN2C(=O)[C@H](Cc2c[nH]c3ccccc23)NC(=O)[C@H](CCC(=O)O)NC(=O)[C@H]([C@@H](C)c2ccncc2)NC1=O [SEQ ID NO. 280] (cyclo([Ahp(2)][4Pal(3S-Me)]EW[dHyp]N[Phe(4-COOH)][Trp(7-CN)][αMeS][Phe(4-CONH2)][Phe(4-CONH2)][Sar][Trp(βS-Me,7-OMe)][X1])) | 0.25 |  | 
3 | CCCC[C@@H]1NC(=O)CSC[C@@H](C(N)=O)NC(=O)[C@H]([C@@H](C)c2c[nH]c3c(OC)cccc23)NC(=O)CN(C)C(=O)[C@H](Cc2ccc(O)cc2)NC(=O)[C@H](Cc2ccc(C(=O)O)cc2)NC(=O)[C@](C)(CO)NC(=O)[C@H](Cc2c[nH]c3c(Cl)cccc23)NC(=O)[C@H](Cc2ccncc2)NC(=O)[C@H](CC(N)=O)NC(=O)[C@H](CCC(=O)O)N(C)C(=O)[C@H](Cc2c[nH]c3ncccc23)NC(=O)[C@@H]2CNCCN2C(=O)[C@H](Cc2c[nH]cn2)NC1=O [SEQ ID NO. 264] ({CH2CO}-[Nle]H[Pip(4-aza)][Trp(7-aza)][NMeE]N[4Pal][Trp(7-Cl)][αMeS][Phe(4-COOH)]Y[Sar][Trp(βS-Me,7-OMe)]C-NH2; thioether N-14) |  |  | 1.49
4 | CCCC[C@@H]1NC(=O)CSC[C@@H](C(N)=O)NC(=O)[C@H]([C@@H](C)c2c[nH]c3c(OC)cccc23)NC(=O)CN(C)C(=O)[C@H](Cc2ccc(O)cc2)NC(=O)[C@H](Cc2ccc(C(=O)O)cc2)NC(=O)[C@](C)(CO)NC(=O)[C@H](Cc2c[nH]c3c(Cl)cccc23)NC(=O)[C@H](Cc2ccncc2)NC(=O)[C@H](CC(N)=O)NC(=O)CN(CC2(O)CC2)C(=O)[C@H](Cc2c[nH]c3ccccc23)NC(=O)[C@@H]2CCCCN2C(=O)[C@H](Cc2ccncc2)NC1=O [SEQ ID NO. 13] ({CH2CO}-[Nle][4Pal][Pip]W[X65]N[4Pal][Trp(7-Cl)][αMeS][Phe(4-COOH)]Y[Sar][Trp(βS-Me,7-OMe)]C-NH2; thioether N-14) | 1 |  | 
